The target in data set [1] is T1, mammalian heparanase (HEPase) (Homo sapiens, UniProt Q9Y251).
T1 sequence (Q9Y251 158-543 limits assumed): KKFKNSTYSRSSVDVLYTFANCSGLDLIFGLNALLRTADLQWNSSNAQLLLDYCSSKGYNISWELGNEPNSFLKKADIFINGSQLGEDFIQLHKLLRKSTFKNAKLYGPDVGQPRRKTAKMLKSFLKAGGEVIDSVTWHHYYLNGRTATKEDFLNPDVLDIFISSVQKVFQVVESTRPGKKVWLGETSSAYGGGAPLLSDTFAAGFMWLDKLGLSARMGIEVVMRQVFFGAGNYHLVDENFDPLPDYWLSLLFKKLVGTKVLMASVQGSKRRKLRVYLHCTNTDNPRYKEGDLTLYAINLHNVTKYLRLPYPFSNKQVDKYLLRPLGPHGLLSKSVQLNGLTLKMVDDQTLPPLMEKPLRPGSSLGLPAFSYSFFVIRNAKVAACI
T1 sequence (Q9Y251 36-109 limits assumed): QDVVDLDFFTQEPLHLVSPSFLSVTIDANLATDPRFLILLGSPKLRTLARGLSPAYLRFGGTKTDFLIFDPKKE
Conditions: cited from earlier work.

Data set [2] deals with anti-heparosan antibodies. The data set can be described thus: ELISA serological test for anti-heparosan IgG/IgM antibodies after repeated immunization. Format: in vivo. Particulars: rat, multiple boosts over approximately seven months. From the text: FIG. 7 depicts the serological test results for potential induction of anti-heparosan antibodies against a heparosan-containing molecule (HEP-G-CSF, heparosan sugar polymer attached to the Granulocyte Colony Stimulating Factor (G-CSF) protein) in a rat model. A control pre-immune sera was collected, and then three animals (Rat #1, #2, and #3) were immunized and periodically boosted with HEP-G-CSF eight times over an approximately seven month period followed by periodic test bleeds. The various serum samples were tested in 96-well plates via ELISA. First, the wells of the plate were coated either with: (i) bovine serum albumin (BSA) to assess the background (‘Control’ shown in grey bars); or (ii) heparosan-BSA (HEP-BSA) conjugate (‘HEP’; shown in black bars), to measure any potential immune response. After blocking all the wells with BSA and washing thoroughly, 1 μl of the pre-immunization serum (the negative control Prebleed, ‘PreB’) or post-immunization serum (collected either on week 9 (Bleed #1; B#1), week 15 (B#2), or week 30 (B#3)) was incubated with wells (the rats had 3, 5, or 9 injections of test antigen, respectively, before these three bleeds). After washing the wells, the presence of any bound rat antibodies was determined by interaction with either an anti-rat IgG (Panel A) or an anti-rat lgM (Panel B) goat secondary antibody-horseradish peroxidase conjugate. […]
In general terms: In an ELISA, binding on a coated surface is turned into a signal by an enzyme label.

In the case of Dermatan sulfate, the “HEPase? substantially sensitive to cleavage by mammalian heparanase” value in data set [1] is “No”.

B1: HEP-G-CSF (conjugate, UniProt P09919 31-207, looked up)
Granulocyte …: TPLGPASSLPQSFLLKCLEQVRKIQGDGAALQEKLVSECATYKLCHPEELVLLGHSLGIPWAPLSSCPSQALQLAGCLSQLHSGLFLYQGLLQALEGISPELGPTLDTLQLDVADFATTIWQQMEELGMAPALQPTQGAMPAFASAFQRRAGGVLVASHLQSFLEVSYRVLRHLAQP
modifications: heparosan polymer conjugate
For B1, the “induction of specific anti-heparosan antibodies (IgG, IgM)” value in data set [2] is recorded as “no specific antibodies against heparosan were observed”.

The values above are taken from patent US20160114050A1, “Heparosan/Therapeutic Prodrug Complexes and Methods of Making and Using Same” (The Board of Regents of the University of Oklahoma, priority 2014, published 2016).
